# Laboratory results as given in patent US20060069132A1, “Azolecarboxamide herbicides” (priority 2004, published 2006).
# Legend:
# pigweed = assay: Test B pre-/postemergence herbicide test; type: in vivo, Amaranthus retroflexus
# Method in brief: (§1)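 Formulation: non-phytotoxic solvent mix with surfactant. Timing: preemergence on seed and postemergence on 2–18 cm plants, applied concurrently. Readout after 13–15 d greenhouse: visual 0–100 control rating against controls.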
# large crabgrass = assay: Test B pre-/postemergence herbicide test; type: in vivo, Digitaria sanguinalis
# Method in brief: as §1
# giant foxtail = assay: Test B pre-/postemergence herbicide test; type: in vivo, Setaria faberi
# Method in brief: as §1
# blackgrass = assay: Test B postemergence herbicide test; type: in vivo, Alopecurus myosuroides; settings: scale 0 (no effect) to 100 (complete control); for Blackgrass plant response rating: postemergence, visual rating; for Plant response rating, Blackgrass: Postemergence, visual rating after 13 to 15 days
# Method in brief: (§2)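 Paddy species grown to the 2-leaf stage under flooding; blackgrass sprayed postemergence at 2–18 cm (1- to 4-leaf stage). Plants kept in a greenhouse for 13 to 15 days, then visually rated against controls on 0 (no effect) to 100 (complete control).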
# wild oat = assay: Test B postemergence herbicide test; type: in vivo, Avena fatua; settings: for Oat, Wild plant response rating: postemergence; for Plant response rating, Oat, Wild: Postemergence, visual rating after 13 to 15 days
# Method in brief: (§3)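 Greenhouse test; postemergence application to plants at 1–4 leaves (2–18 cm); paddy species at 2 leaves; evaluated visually vs controls at 13–15 days; scale 0–100 (100 = complete control).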
# barnyardgrass = assay: Test B pre-/postemergence herbicide test; type: in vivo, Echinochloa crus-galli
# Method in brief: (§4)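 Test chemicals in a non-phytotoxic solvent mixture with surfactant were applied preemergence to seeded species and postemergence to plants 2-18 cm tall (1- to 4-leaf stage); rice and barnyardgrass were also tested in a flooded paddy at the 2-leaf stage. Visual rating versus controls after 13-15 days in greenhouse, scale 0 (no effect) to 100 (complete control).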
# ducksalad = assay: Test B flooded paddy test; type: in vivo, Heteranthera limosa; settings: 1000 g ai/ha, scale 0 to 100 (0 no effect, 100 complete control)
# Method in brief: as §2
# wheat = assay: Test B postemergence herbicide test; type: in vivo, Triticum aestivum; parameters: key to Wheat plant response rating: 0 = no effect, 100 = complete control; settings: for Wheat plant response rating: postemergence; for Plant response rating, Wheat: Postemergence, visual rating after 13 to 15 days
# Method in brief: as §3
# morningglory = assay: Test B pre-/postemergence herbicide test; type: in vivo, Ipomoea coccinea
# Method in brief: as §4
# [1] = tested on: small flower umbrella sedge; assay: Test B flooded paddy test; type: in vivo, Cyperus difformis; settings: 1000 g ai/ha, scale 0 to 100 (0 no effect, 100 complete control)
# Method in brief: as §2
# corn = assay: Test B pre-/postemergence herbicide test; type: in vivo, Zea mays
# Method in brief: as §1
# velvetleaf = assay: Test B pre-/postemergence herbicide test; type: in vivo, Abutilon theophrasti
# Method in brief: as §1
# rice = assay: Test B flooded paddy test; type: in vivo, Oryza sativa; settings: 1000 g ai/ha, scale 0 to 100 (0 no effect, 100 complete control)
# Method in brief: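 Scale 0–100: zero equals no visible effect, 100 complete control, judged by eye relative to controls. Timing: 13 to 15 days in greenhouse post-treatment. Growth stage at spraying: two leaves (paddy) or one to four leaves, 2–18 cm (postemergence).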
# Surinam grass = assay: Test B pre-/postemergence herbicide test; type: in vivo, Urochloa decumbens
# Method in brief: as §1
# cocklebur = assay: Test B pre-/postemergence herbicide test; type: in vivo, Xanthium strumarium
# Method in brief: as §4
# [2] = 125 g ai/ha, 0 = no effect, 100 = complete control, preemergence
# [3] = 500 g ai/ha, visual rating, 0 = no effect, 100 = complete control, preemergence
# [4] = postemergence, 125 g ai/ha, visual rating, scale 0 (no effect) to 100 (complete control)
# [5] = postemergence, 500 g ai/ha, scale 0 to 100, 0 is no effect, 100 is complete control
# [6] = 125 g ai/ha, visual rating, scale 0 (no effect) to 100 (complete control)
# [7] = 500 g ai/ha, scale 0 to 100, 0 is no effect, 100 is complete control
# [8] = postemergence, 500 g ai/ha, visual rating, scale 0 (no effect) to 100 (complete control)
# [9] = Postemergence, 500 g ai/ha, visual rating after 13 to 15 days, scale 0 (no effect) to 100 (complete control)
# [10] = preemergence, 125 g ai/ha, 0 to 100 scale, 0 is no effect, 100 is complete control
# [11] = Preemergence, 500 g ai/ha, scale 0 to 100
# [12] = 500 g ai/ha, scale 0 (no effect) to 100 (complete control)
compound,measurement,setting,value
CCn1nc(C(C)(C)C)cc1C(=O)Nc1cc(C(=O)N(C)OC)ccc1F [Compound 244],Pigweed plant response rating (0 to 100 scale),pigweed; [2],90
same,"Plant response rating, Pigweed",pigweed; [3],100
same,Pigweed plant response rating,pigweed; [4],50
same,Pigweed plant response rating,pigweed; [5],70
same,"Crabgrass, Large plant response rating (0 to 100 scale)",large crabgrass; [2],90
same,"Plant response rating, Crabgrass, Large",large crabgrass; [3],100
same,"Crabgrass, Large plant response rating",large crabgrass; [4],10
same,"Crabgrass, Large plant response rating",large crabgrass; [5],30
same,"Foxtail, Giant plant response rating (0 to 100 scale)",giant foxtail; [2],80
same,"Plant response rating, Foxtail, Giant",giant foxtail; [3],90
same,"Foxtail, Giant plant response rating",giant foxtail; [4],20
same,"Foxtail, Giant plant response rating",giant foxtail; [5],30
same,Blackgrass plant response rating,blackgrass; 125 g ai/ha,10
same,Blackgrass plant response rating,blackgrass; 500 g ai/ha,20
same,"Oat, Wild plant response rating",wild oat; [6],30
same,"Oat, Wild plant response rating",wild oat; [7],50
same,Barnyardgrass plant response rating (0 to 100 scale),barnyardgrass; [2],80
same,"Plant response rating, Barnyardgrass",barnyardgrass; [3],90
same,Barnyardgrass plant response rating,barnyardgrass; [4],10
same,Barnyardgrass plant response rating,barnyardgrass; [8],50
same,Ducksalad plant response rating,ducksalad,90
same,Wheat plant response rating,wheat; [6],10
same,Wheat plant response rating,wheat; [7],20
same,Morningglory plant response rating (0 to 100 scale),morningglory; [2],0
same,"Plant response rating, Morningglory",morningglory; [3],20
same,Morningglory plant response rating,morningglory; [4],10
same,Morningglory plant response rating,morningglory; [5],20
same,"Sedge, Umbrella plant response rating",[1],80
same,Corn plant response rating (0 to 100 scale),corn; [2],30
same,"Plant response rating, Corn",corn; [3],60
same,Corn plant response rating,corn; [4],10
same,Corn plant response rating,corn; [5],30
same,Velvetleaf plant response rating (0 to 100 scale),velvetleaf; [2],70
same,"Plant response rating, Velvetleaf",velvetleaf; [3],100
same,Velvetleaf plant response rating,velvetleaf; [4],40
same,Velvetleaf plant response rating,velvetleaf; [5],60
same,Rice plant response rating,rice,90
same,Surinam Grass plant response rating (0 to 100 scale),Surinam grass; [2],70
same,"Plant response rating, Surinam Grass",Surinam grass; [3],90
same,Surinam Grass plant response rating,Surinam grass; [4],20
same,Surinam Grass plant response rating,Surinam grass; [5],30
same,Cocklebur plant response rating (0 to 100 scale),cocklebur; [2],0
same,"Plant response rating, Cocklebur",cocklebur; [3],20
same,Cocklebur plant response rating,cocklebur; [4],30
same,Cocklebur plant response rating,cocklebur; [8],80
CCn1nc(C(C)(C)C)cc1C(=O)Nc1cccc(C(=O)NCC(C)C)c1 [Compound 61],"Plant response rating, Pigweed",pigweed; [9],60
same,Pigweed plant response rating,pigweed; [4],20
same,"Plant response rating, Pigweed",pigweed; [10],80
same,"Plant response rating, Crabgrass, Large",large crabgrass; [9],30
same,"Crabgrass, Large plant response rating",large crabgrass; [11],100
same,"Crabgrass, Large plant response rating",large crabgrass; [4],20
same,"Plant response rating, Crabgrass, Large",large crabgrass; [10],50
same,"Plant response rating, Foxtail, Giant",giant foxtail; [9],30
same,"Foxtail, Giant plant response rating",giant foxtail; [11],80
same,"Foxtail, Giant plant response rating",giant foxtail; [4],20
same,"Plant response rating, Foxtail, Giant",giant foxtail; [10],20
same,"Plant response rating, Blackgrass",blackgrass; 500 g ai/ha,0
same,Blackgrass plant response rating,blackgrass; 125 g ai/ha,0
same,"Plant response rating, Oat, Wild",wild oat; [12],20
same,"Oat, Wild plant response rating",wild oat; [6],20
same,"Plant response rating, Barnyardgrass",barnyardgrass; [9],30
same,Barnyardgrass plant response rating,barnyardgrass; [11],60
same,Barnyardgrass plant response rating,barnyardgrass; [4],20
same,"Plant response rating, Barnyardgrass",barnyardgrass; [10],20
same,Ducksalad plant response rating,"ducksalad; visual rating, 13 to 15 days",80
same,"Plant response rating, Wheat",wheat; [12],10
same,Wheat plant response rating,wheat; [6],10
same,"Plant response rating, Morningglory",morningglory; [9],50
same,Morningglory plant response rating,morningglory; [4],20
same,"Sedge, Umbrella plant response rating","[1]; visual rating, 13 to 15 days",60
same,"Plant response rating, Corn",corn; [9],40
same,Corn plant response rating,corn; [11],10
same,Corn plant response rating,corn; [4],20
same,"Plant response rating, Corn",corn; [10],0
same,"Plant response rating, Velvetleaf",velvetleaf; [9],70
same,Velvetleaf plant response rating,velvetleaf; [4],30
same,"Plant response rating, Velvetleaf",velvetleaf; [10],70
same,Rice plant response rating,"rice; visual rating, 13 to 15 days",0
same,"Plant response rating, Surinam Grass",Surinam grass; [9],30
same,Surinam Grass plant response rating,Surinam grass; [4],20
same,"Plant response rating, Surinam Grass",Surinam grass; [10],10
same,"Plant response rating, Cocklebur",cocklebur; [9],100
same,Cocklebur plant response rating,cocklebur; [11],0
same,Cocklebur plant response rating,cocklebur; [4],60
same,"Plant response rating, Cocklebur",cocklebur; [10],0
CCn1nc(C(C)(C)C)cc1C(=O)Nc1cccc(C(=O)NC(C)C)c1 [Compound 51],"Plant response rating, Pigweed",pigweed; [9],100
same,Pigweed plant response rating,pigweed; [11],100
same,Pigweed plant response rating,pigweed; [4],80
same,"Plant response rating, Pigweed",pigweed; [10],100
same,"Plant response rating, Crabgrass, Large",large crabgrass; [9],50
same,"Crabgrass, Large plant response rating",large crabgrass; [11],100
same,"Crabgrass, Large plant response rating",large crabgrass; [4],20
same,"Plant response rating, Crabgrass, Large",large crabgrass; [10],90
same,"Plant response rating, Foxtail, Giant",giant foxtail; [9],0
same,"Foxtail, Giant plant response rating",giant foxtail; [11],100
same,"Foxtail, Giant plant response rating",giant foxtail; [4],0
same,"Plant response rating, Foxtail, Giant",giant foxtail; [10],100
same,"Plant response rating, Blackgrass",blackgrass; 500 g ai/ha,0
same,Blackgrass plant response rating,blackgrass; 125 g ai/ha,0
same,"Plant response rating, Oat, Wild",wild oat; [12],10
same,"Oat, Wild plant response rating",wild oat; [6],0
same,"Plant response rating, Barnyardgrass",barnyardgrass; [9],80
same,Barnyardgrass plant response rating,barnyardgrass; [11],100
same,Barnyardgrass plant response rating,barnyardgrass; [4],60
same,"Plant response rating, Barnyardgrass",barnyardgrass; [10],80
same,Ducksalad plant response rating,"ducksalad; visual rating, 13 to 15 days",80
same,"Plant response rating, Wheat",wheat; [12],20
same,Wheat plant response rating,wheat; [6],20
same,"Plant response rating, Morningglory",morningglory; [9],0
same,Morningglory plant response rating,morningglory; [11],0
same,Morningglory plant response rating,morningglory; [4],0
same,"Plant response rating, Morningglory",morningglory; [10],0
same,"Sedge, Umbrella plant response rating","[1]; visual rating, 13 to 15 days",80
same,"Plant response rating, Corn",corn; [9],0
same,Corn plant response rating,corn; [11],50
same,Corn plant response rating,corn; [4],0
same,"Plant response rating, Corn",corn; [10],0
same,"Plant response rating, Velvetleaf",velvetleaf; [9],70
same,Velvetleaf plant response rating,velvetleaf; [11],100
same,Velvetleaf plant response rating,velvetleaf; [4],60
same,"Plant response rating, Velvetleaf",velvetleaf; [10],50
same,Rice plant response rating,"rice; visual rating, 13 to 15 days",70
same,"Plant response rating, Surinam Grass",Surinam grass; [9],20
same,Surinam Grass plant response rating,Surinam grass; [11],80
same,Surinam Grass plant response rating,Surinam grass; [4],10
same,"Plant response rating, Surinam Grass",Surinam grass; [10],30
same,"Plant response rating, Cocklebur",cocklebur; [9],80
same,Cocklebur plant response rating,cocklebur; [11],50
same,Cocklebur plant response rating,cocklebur; [4],70
same,"Plant response rating, Cocklebur",cocklebur; [10],0
